Source: US8674109B2, “Pesticidal compositions” (Dow AgroSciences, LLC., priority 2009, dated 2014)

What was measured:
Assay type in all cases: in vivo
[1] = test system: beet armyworm (BAW; Spodoptera exigua: Lepidoptera); experiment: Insecticidal test for beet armyworm, 128-well diet tray assay
Procedure: Insecticidal Test for Beet Armyworm (Spodoptera exigua)
(§1) Bioassays on beet armyworm (BAW; Spodoptera exigua: Lepidoptera) were conducted using a 128-well diet tray assay. Three to five second instar BAW larvae were placed in each well (3 mL) of the diet tray that had been previously filled with 1 mL of artificial diet to which 50 μg/cm^2 of the test compound (dissolved in 50 μL of 90:10 acetone-water mixture) had been applied (to each of eight wells) and then allowed to dry. Trays were covered with a clear self-adhesive cover, and held at 25° C., 14:10 light-dark for six days. Percent mortality was recorded for the larvae in each well; activity in the eight wells was then averaged.

[2] = test system: corn earworm (CEW; Helicoverpa zea: Lepidoptera); experiment: Insecticidal test for corn earworm, 128-well diet tray assay
Procedure: Insecticidal Test for Corn Earworm (Helicoverpa zea)
as §1, with “corn earworm (CEW; Helicoverpa zea:” for “beet armyworm (BAW; Spodoptera exigua:”, “CEW” for “BAW”

[3] = test system: green peach aphid (Myzus persicae); experiment: Insecticidal test for green peach aphid in foliar spray assay on cabbage seedlings
Procedure: Insecticidal Test for Green Peach Aphid (Myzus persicae) in Foliar Spray Assay
Cabbage seedlings grown in 3-inch pots, with 2-3 small (3-5 cm) true leaves, were used as test substrate. The seedlings were infested with 20-50 green peach aphids (wingless adult and nymph) one day prior to chemical application. Four pots with individual seedlings were used for each treatment. Compounds (2 mg) were dissolved in 2 mL of acetone/methanol (1:1) solvent, forming stock solutions of 1000 ppm. The stock solutions were diluted 5× with 0.025% Tween 20 in H2O to obtain the solution at 200 ppm. A hand-held Devilbiss sprayer was used for spraying a solution to both sides of cabbage leaves until runoff. Reference plants (solvent check) were sprayed with the diluent only. Treated plants were held in a holding room for three days at approximately 25° C. and 40% relative humidity (RH) prior to grading. Evaluation was conducted by counting the number of live aphids per plant under a microscope. Insecticidal activity was measured by using Abbott's correction formula are presented in Table 2: Corrected % Control=100*(X−Y)/X
where • X=No. of live aphids on solvent check plants • Y=No. of live aphids on treated plants

Row | SMILES | % Mortality BAW 50 μg/cm^2 [1] | % Mortality CEW 50 μg/cm^2 [2] | % Mortality GPA 200 ppm [3]
1 | CC(C)c1ccc(C(C)OC(=O)Nc2ccc(-c3ncn(-c4ccc(OC(F)(F)F)cc4)n3)cc2)cc1 (stereo not drawn) [Compound 38] | A (50-100) | A (50-100) | B (Less than 80)
2 | CC(OC(=O)Nc1ccc(-c2ncn(-c3ccc(OC(F)(F)F)cc3)n2)cc1)c1ccc(Br)cc1 (stereo not drawn) [Compound 39] | A (50-100) | A (50-100) | B (Less than 80)
3 | CC(OC(=O)Nc1ccc(-c2ncn(-c3ccc(OC(F)(F)F)cc3)n2)cc1)c1ccc(C(C)(C)C)cc1 (stereo not drawn) [Compound 40] | A (50-100) | A (50-100) | B (Less than 80)
4 | CC(OC(=O)Nc1ccc(-c2ncn(-c3ccc(OC(F)(F)F)cc3)n2)cc1)c1ccc(C(F)(F)F)nc1 (stereo not drawn) [Compound 41] | A (50-100) | A (50-100) | B (Less than 80)
5 | CC(OC(=O)Nc1ccc(-c2ncn(-c3ccc(OC(F)(F)F)cc3)n2)cc1)c1ccc(C(F)(F)F)cc1 (stereo not drawn) [Compound 42] | A (50-100) | A (50-100) | B (Less than 80)
6 | O=C(Nc1ccc(-c2ncn(-c3ccc(OC(F)(F)F)cc3)n2)cc1)OC(c1ccccc1)c1ccc(C(F)(F)F)cc1 (stereo not drawn) [Compound 43] | A (50-100) | A (50-100) | B (Less than 80)
7 | C#Cc1ccc(C(C)OC(=O)Nc2ccc(-c3ncn(-c4ccc(OC(F)(F)F)cc4)n3)cc2)cc1 (stereo not drawn) [Compound 44] | A (50-100) | A (50-100) | B (Less than 80)
8 | CC(OC(=O)Nc1ccc(-c2ncn(-c3ccc(OC(F)(F)F)cc3)n2)cc1)c1ccc(C#N)cc1 (stereo not drawn) [Compound 45] | A (50-100) | A (50-100) | B (Less than 80)
9 | CC(OC(=O)Nc1ccc(-c2ncn(-c3ccc(OC(F)(F)F)cc3)n2)cc1)c1ccccn1 (stereo not drawn) [Compound 46] | A (50-100) | A (50-100) | B (Less than 80)
10 | Cc1ccc(C(C)OC(=O)Nc2ccc(-c3ncn(-c4ccc(OC(F)(F)F)cc4)n3)cc2)cn1 (stereo not drawn) [Compound 47] | A (50-100) | A (50-100) | B (Less than 80)
11 | CC(OC(=O)Nc1ccc(-c2ncn(-c3ccc(OC(F)(F)F)cc3)n2)cc1)c1ccncc1 (stereo not drawn) [Compound 48] | A (50-100) | A (50-100) | B (Less than 80)
12 | CC(C)(OC(=O)Nc1ccc(-c2ncn(-c3ccc(OC(F)(F)F)cc3)n2)cc1)c1ccc(C(F)(F)F)cc1 [Compound 49] | A (50-100) | A (50-100) | B (Less than 80)
13 | O=C(Nc1ccc(-c2ncn(-c3ccc(OC(F)(F)F)cc3)n2)cc1)OCc1ccc(C(F)(F)F)cc1 [Compound 50] | B (Less than 50) | B (Less than 50) | B (Less than 80)
14 | CC(OC(=O)Nc1ccc(-c2ncn(-c3ccc(OC(F)(F)F)cc3)n2)cc1)c1ccc(C(F)(F)F)[n+]([O-])c1 (stereo not drawn) [Compound 51] | A (50-100) | A (50-100) | B (Less than 80)
15 | C#CC(OC(=O)Nc1ccc(-c2ncn(-c3ccc(OC(F)(F)F)cc3)n2)cc1)c1ccc(Cl)nc1 (stereo not drawn) [Compound 52] | A (50-100) | A (50-100) | B (Less than 80)
16 | C#CC(OC(=O)Nc1ccc(-c2ncn(-c3ccc(OC(F)(F)F)cc3)n2)cc1)c1ccc(C(F)(F)F)nc1 (stereo not drawn) [Compound 53] | A (50-100) | A (50-100) | B (Less than 80)
